IC50 data for eleven molecules are collected here from US20250282799A1, “SUBSTITUTED PYRIDO[4,3-d]PYRIMIDINES AS KRAS MODULATORS” (Alterome Therapeutics, Inc., priority 2023, published 2025).

Some results are limits rather than exact numbers.

The test system of one assay is KRAS G12V dependent lung adenocarcinoma cell line, NCI-H441. Put plainly: Cellular pERK (Thr202/Tyr204) FRET/HTRF assay. Format: cell-based. Particulars: Homo sapiens, NCI-H441, cellular pERK (Thr202/Tyr204) HTRF, NCI-H441 cells. From the text: “Ras” refers to a protein in the Ras superfamily of small GTPases, such as in the Ras subfamily. […] The Ras proteins play a critical role in the regulation of cell behaviors, including proliferation, differentiation, and survival. […] KRAS G12V, G12D, and G12S variants are common in human cancers and Ras inhibitors binding in or near the Switch II pocket may provide mutant binding selectivity. RAS mutations are known to be often associated with pancreatic, colorectal and non-small-cell lung carcinomas (Lone, A. M. et al. J. Am. Chem. Soc. 2011,133, 11665-74, which is entirely incorporated herein by reference; Dillon, M. B.; Bachovchin, D. A.; Brown, S. J.; Finn, M. G.; Rosen, H.; Cravatt, B. F.; Mowen, K. A. ACS Chem. Biol. 2012, 7, 1198-204, which is entirely incorporated herein by reference; Bachovchin, D. A.; Brown, S. J.; Rosen, H.; Cravatt, B. F. Nat. Biotechnol. 2009, 27, 387-94, Ostrem, J. M.; Peters, U.; Sos, M. L.; Wells, J. A.; Shokat, K. M. Nature 2013, 503, 548-551. Ryan M. B. and Corcoran R. B, Nat. Rev Clin Onco. 2018, 11, 709-720.). Ras proteins are key members in the Ras/Raf/Mitogen-activated protein kinase (MAPK) signaling pathway. This pathway regulates a wide variety of cellular processes, including proliferation, differentiation, apoptosis, and stress responses. One way to measure the impact of an inhibitor of Ras proteins is to measure downstream phosphorylation of proteins in the MAPK pathway. The MAPK pathway includes extracellular signal-regulated kinases named ERK1 and ERK2, which are serine-threonine kinases that regulate cellular signaling under both normal and oncogenic conditions. ERK expression and hyperactivation via phosphorylation plays a major role in cancer progression and are downstream of Ras proteins. The assay used for measuring the downstream impact of Ras inhibition is the use of a highly sensitive cell-based readout of ERK phosphorylation (pERK) specifically on Threonine (Thr) 202 and Tyrosine (Tyr) 204 in a KRAS G12V dependent lung adenocarcinoma cell line, NCI-H441 (ATCC Cat #HTB-174). The assay described herein is suitable for assessing inhibition of Ras and can be tailored for any of the predominant oncogenic mutations in any isoform of Ras (e.g., KRAS, HRAS, and NRAS) by changing the cell line.
pERK was measured using an advanced pERK assay designed for the robust and highly sensitive quantification of ERK phosphorylation on Thr202/Tyr204. This assay is intended for the simple, rapid, and direct detection of endogenous levels of ERK1/2 in cells, but only when ERK is phosphorylated at Thr202 and Tyr204 (Perkin Elmer Catalog #64AERPEH). pERK was detected in a FRET based sandwich assay format using 2 different specific antibodies, one labelled with Eu3+-Cryptate (donor) and the second with d2 (acceptor). When the dyes are in close proximity, the excitation of the donor with a light source (laser or flash lamp) triggers a Fluorescence Resonance Energy Transfer (FRET) towards the acceptor, which in turn fluoresces at a specific wavelength (665 nm). The specific signal modulates positively in proportion to p-ERK1/2 (Thr202/Tyr204). The simple mix-and-read protocol eliminates all wash steps for faster analysis and high-quality output. Briefly, cells were diluted to the desired concentration per well based on a growth curve showing ˜75% confluence within a 24-hour time period at no less than 95% viability. Cell suspension (24 μL) were added into each well of 384-well culture plate and maintained in 37° C. 5% CO2 incubator overnight prior to assay. All compounds were transferred to stock plates using TECAN (EVO200) liquid handler using DMSO as the solubilizing and dilution agent. Test compounds were transferred onto adherent cells using an Echo655 liquid handler. DMSO was employed as negative control. Cells were incubated with test compounds for 1 hr in a 37° C., 5% CO2 incubator following compound addition. […]
(In TR-FRET formats the signal depends on donor and acceptor labels being close together.)
Consider `[2H]C([2H])(Oc1nc(N2CCOC[C@H]3[C@H](F)[C@H]32)c2cc(C(F)(F)F)c(-c3ccc(F)c4sc(N)c(C#N)c34)c(F)c2n1)[C@@]12CCCN1C[C@H](F)C2` (atropisomer, axis not shown; (aS)) [Example 365, 2-amino-7-fluoro-4-((S)-8-fluoro-4-((1S,7S,8S)-8-fluoro-5-oxa-2-azabicyclo[5.1.0]octan-2-yl)-2-(((2R,7aS)-2-fluorotetrahydro-1H-pyrrolizin-7a(5H)-yl)methoxy-d2)-6-(trifluoromethyl)quinazolin-7-yl)benzo[b]thiophene-3-carbonitrile], for which the 50% inhibitory concentration (IC50) – broadly, the concentration that inhibits the measured activity by half – is < 0.05 µM.

The assay is the same for the next values; noted with them: cellular pERK (Thr202/Tyr204) HTRF, NCI-H441 cells.
`[2H]C([2H])(Oc1nc(N2CCOC[C@H]3[C@H](F)[C@H]32)c2cc(C#N)c(-c3cc(N)cc4ccc(F)c(C#C)c34)c(F)c2n1)[C@@]12CCCN1C[C@H](F)C2` (atropisomer, axis not shown; (aS)) [Example 360, (R)-7-(3-amino-8-ethynyl-7-fluoronaphthalen-1-yl)-8-fluoro-4-((1S,7S,8S)-8-fluoro-5-oxa-2-azabicyclo[5.1.0]octan-2-yl)-2-(((2R,7aS)-2-fluorotetrahydro-1H-pyrrolizin-7a(5H)-yl)methoxy-d2)quinazoline-6-carbonitrile] showed an IC50 of 0.5 to 10 µM.
On the same count and under the same terms, as for `[2H]C([2H])(Oc1nc(N2CCOC[C@H]3[C@H](F)[C@H]32)c2cc(Cl)c(-c3cc(N)cc4ccc(F)c(C#C)c34)c(F)c2n1)[C@@]12CCCN1C[C@H](F)C2` (atropisomer, axis not shown; (aS)) [Example 361, 4-((S)-6-chloro-8-fluoro-4-((1S,7S,8S)-8-fluoro-5-oxa-2-azabicyclo[5.1.0]octan-2-yl)-2-(((2R,7aS)-2-fluorotetrahydro-1H-pyrrolizin-7a(5H)-yl)methoxy-d2)quinazolin-7-yl)-5-ethynyl-6-fluoronaphthalen-2-amine], the figure is 0.5 to 10 µM; as for `[2H]C([2H])(Oc1nc(N2CCOC[C@H]3[C@H](F)[C@H]32)c2cc(C(F)(F)F)c(-c3ccc(F)c4sc(N)c(C#N)c34)c(F)c2n1)[C@@]12CCCN1C[C@H](F)C2` (atropisomer, axis not shown; (aS)) [Example 390, 2-amino-7-fluoro-4-((R)-8-fluoro-4-((1S,7S,8S)-8-fluoro-5-oxa-2-azabicyclo[5.1.0]octan-2-yl)-2-(((2R,7aS)-2-fluorotetrahydro-1H-pyrrolizin-7a(5H)-yl)methoxy-d2)-6-(trifluoromethyl)quinazolin-7-yl)benzo[b]thiophene-3-carbonitrile], < 0.05 µM.
The same measure, in the same setting: under `[2H]C([2H])(Oc1nc(N2CCOC[C@H]3[C@H](F)[C@H]32)c2cc(F)c(-c3cc(N)cc4ccc(F)c(C#C)c34)c(F)c2n1)[C@@]12CCCN1C[C@H](F)C2` (atropisomer, axis not shown; (aS)) [Example 391, 4-((R)-6,8-difluoro-4-((1S,7S,8S)-8-fluoro-5-oxa-2-azabicyclo[5.1.0]octan-2-yl)-2-(((2R,7aS)-2-fluorotetrahydro-1H-pyrrolizin-7a(5H)-yl)methoxy-d2)quinazolin-7-yl)-5-ethynyl-6-fluoronaphthalen-2-amine] stands < 0.05 µM; under `[2H]C([2H])(Oc1nc(N2CCOC[C@H]3[C@H](F)[C@H]32)c2cc(F)c(-c3cc(N)cc4ccc(F)c(C#C)c34)c(F)c2n1)[C@@]12CCCN1C[C@H](F)C2` (atropisomer, axis not shown; (aS)) [Example 400, 4-((S)-6,8-difluoro-4-((1S,7S,8S)-8-fluoro-5-oxa-2-azabicyclo[5.1.0]octan-2-yl)-2-(((2R,7aS)-2-fluorotetrahydro-1H-pyrrolizin-7a(5H)-yl)methoxy-d2)quinazolin-7-yl)-5-ethynyl-6-fluoronaphthalen-2-amine], 0.5 to 10 µM; under `[2H]C([2H])(Oc1nc(N2CCOC[C@H]3[C@H](Cl)[C@H]32)c2cc(C(F)(F)F)c(-c3ccc(F)c4sc(N)c(C#N)c34)c(F)c2n1)[C@@]12CCCN1C[C@H](F)C2` (atropisomer, axis not shown; (aS)) [Example 418, 2-amino-4-((R)-4-((1S,7S,8S)-8-chloro-5-oxa-2-azabicyclo[5.1.0]octan-2-yl)-8-fluoro-2-(((2R,7aS)-2-fluorotetrahydro-1H-pyrrolizin-7a(5H)-yl)methoxy-d2)-6-(trifluoromethyl)quinazolin-7-yl)-7-fluorobenzo[b]thiophene-3-carbonitrile], 0.5 to 10 µM.
The same measure, in the same setting: as for `[2H]C([2H])(Oc1nc(N2CCOC[C@@H]3[C@@H](Cl)[C@@H]32)c2cc(C(F)(F)F)c(-c3ccc(F)c4sc(N)c(C#N)c34)c(F)c2n1)[C@@]12CCCN1C[C@H](F)C2` (atropisomer, axis not shown; (aS)) [Example 419, 2-amino-4-((S)-4-((1R,7R,8R)-8-chloro-5-oxa-2-azabicyclo[5.1.0]octan-2-yl)-8-fluoro-2-(((2R,7aS)-2-fluorotetrahydro-1H-pyrrolizin-7a(5H)-yl)methoxy-d2)-6-(trifluoromethyl)quinazolin-7-yl)-7-fluorobenzo[b]thiophene-3-carbonitrile], the figure is 0.05 to 0.5 µM.
On to `[2H]C([2H])(Oc1nc(N2CCOC[C@H]3[C@H](Cl)[C@H]32)c2cc(C(F)(F)F)c(-c3ccc(F)c4sc(N)c(C#N)c34)c(F)c2n1)[C@@]12CCCN1C[C@H](F)C2` (atropisomer, axis not shown; (aS)) [Example 420, 2-amino-4-((S)-4-((1S,7S,8S)-8-chloro-5-oxa-2-azabicyclo[5.1.0]octan-2-yl)-8-fluoro-2-(((2R,7aS)-2-fluorotetrahydro-1H-pyrrolizin-7a(5H)-yl)methoxy-d2)-6-(trifluoromethyl)quinazolin-7-yl)-7-fluorobenzo[b]thiophene-3-carbonitrile], for which the IC50 is < 0.05 µM.
Regarding `[2H]C([2H])(Oc1nc(N2CCOC[C@@H]3[C@@H](Cl)[C@@H]32)c2cc(C(F)(F)F)c(-c3ccc(F)c4sc(N)c(C#N)c34)c(F)c2n1)[C@@]12CCCN1C[C@H](F)C2` (atropisomer, axis not shown; (aS)) [Example 421, 2-amino-4-((R)-4-((1R,7R,8R)-8-chloro-5-oxa-2-azabicyclo[5.1.0]octan-2-yl)-8-fluoro-2-(((2R,7aS)-2-fluorotetrahydro-1H-pyrrolizin-7a(5H)-yl)methoxy-d2)-6-(trifluoromethyl)quinazolin-7-yl)-7-fluorobenzo[b]thiophene-3-carbonitrile], the IC50 is 0.5 to 10 µM.

Still in this assay, the particulars now being: cellular pERK HTRF, NCI-H441 (KRAS G12V) cells.
Turning to `[2H]C([2H])(Oc1nc(N2CCOC[C@H]3[C@H](F)[C@H]32)c2cc(F)c(-c3cc(N)cc4ccc(F)c(C#C)c34)c(C)c2n1)[C@@]12CCCN1C[C@H](F)C2` (atropisomer, axis not shown; (aS)) [Example 434, 5-Ethynyl-6-fluoro-4-((R)-6-fluoro-4-((1S,7S,8S)-8-fluoro-5-oxa-2-azabicyclo[5.1.0]octan-2-yl)-2-(((2R,7aS)-2-fluorotetrahydro-1H-pyrrolizin-7a(5H)-yl)methoxy-d2)-8-methylquinazolin-7-yl)naphthalen-2-amine], the IC50 is 0.5 to 10 µM.
